From US5216183A, “Cyclopentanone/cyclopentenone derivative” (Teijin Limited, priority 1988, dated 1993) come the findings set out here.

A word on the IC50: it is the concentration at which inhibition is half-maximal. Lower therefore signals greater potency.

Holding throughout (format): cell-based
One assay relates to L1210 cancer cells. The assay can be described thus: Evaluation of antitumor activity (L1210 growth, 4 days, trypan blue). The following applies: Mus musculus, 96 h, Table 37, L1210, 1×10^5 cells/ml. The protocol:
Cancer cells were grown in an RPMI 1640 culture medium containing 10% of fetal calf serum.
The compound to be tested was dissolved in 99.5% ethanol and was added to the medium so that the final concentration of the ethanol was 0.1% or less. As a control, 0.1% ethanol was used. L1210 cancer cells were inoculated at a concentration of 1×10^5 cells/ml in the medium and were grown for 4 days. The number of live cells was determined by trypan blue staining.

Assay [1] has as its system human osteoblast (KK-3, 18PDL). The assay can be described thus: Determination (3) of bone formation activity (KK-3, 14 days). The following applies: Table 40; for ALP: control 0.72 ± 0.17; for P: control 51 ± 5; for Ca: control 90 ± 8. The protocol: Human osteoblast (KK-3, 18PDL) was cultured in α-MEM containing 10% fetal bovine serum, and when a stable growth was attained, a predetermined concentration of the compound was added in the presence of 2 mM α-glycerophosphoric acid salt, followed by treatment for 14 days. The cell layer was washed with a physioligical salt solution and the alkali phosphatase activity then measured by absorption at OD415. Next, calcium and phosphorus were extracted with a 2N hydrochloric acid solution and quantitated.

Another assay has as its system L1210 tumor cells. The assay can be described thus: Measurement of anticancer activity (L1210 growth, 2 days, trypan blue). The following applies: Mus musculus, 48 h, Table 25, L1210, 2.5×10^4 cells/ml. The protocol: Tumor cells were grown in an RPMI 1640 medium containing of 10% fetal calf serum.
The compound was dissolved in 99.5% ethanol, adjusted before use so that the final concentration of ethanol was 0.1% or less, and added to the medium.
The control was 0.1% ethanol, and L1210 tumor cells were inoculated in the medium in a concentration of 2.5×10^4 cells/ml and grown for 2 days. The number of surviving cells were measured by trypan blue staining.

Assay [2] deals with human osteoblast (KK-3, 18PDL). Briefly: Determination (2) of bone formation activity (KK-3, 14 days). The settings on record: Table 39; for ALP: control 0.44 ± 0.12; for Ca: control 106 ± 12; for P: control 61 ± 10. The protocol: Human osteoblast (KK-3, 18PDL) was cultured in α-MEM containing 10% fetal bovine serum, and when a stable growth was attained, a predetermined concentration of the compound was added in the presence of 2 mM α-glycerophosphoric acid salt, followed by treatment for 14 days. The cell layer was washed with physiological salt solution and the alkali phosphatase activity then measured by absorption at OD415. Then, calcium and phosphorus were extracted with a 2N hydrochloric acid solution and quantitated.

Assay [3] has as its system human osteoblasts (KK-3, 18PDL). Briefly: Measurement of bone formation activity (KK-3, 14 days). How it is done: Human osteoblasts (KK-3, 18PDL) were cultured in an α-MEM containing 10% fetal calf serum. After the growth became stationary, the compound was added in a given concentration in the presence of 2 mM α-glycerophosphate and treated for 14 days. The cell phase was washed with physiological saline, and the alkaline phosphatase activity (ALP) was measured through the absorption of OD415. Then, calcium (Ca) and phosphorus (P) were extracted with a 2N hydrochloric acid and quantitatively determined.

The mark [4] stands for this setting: Table 28, 10^-6 M, control 4.33 ± 0.58.

≈ marks a conversion by molar mass, not a printed value.

`C[S+]([O-])C1=CC(O)(CCCCOc2ccccc2)/C(=C\C=C\C(O)CCCO)C1=O` (stereo not shown) [2-methylsulfinyl-5-[( -- E)-4,7-dihydroxy-2-heptenylidene]-4-(4-phenoxybutyl)-4-hydroxy-2-cyclopentenone] came in with a concentration for half-maximal inhibition (IC50) in the assay on L1210 cancer cells of 1 µg/mL (≈ 2.3 µM).
On the same count and under the same terms, the value for `CSC1=CC(O)(CCCCOc2ccccc2)/C(=C/C=C/C(O)CCCO)C1=O` (stereo not shown) [drawing 1101, 2-methylthio-5-[( -- Z)-4,7-dihydroxy-2-eptenylidene]-4-(4-phenoxybutyl)-4-hydroxy-2-cyclopentenone] was 1.2 µg/mL (≈ 2.87 µM).
In assay [1] (10^-6 M), `C[S+]([O-])C1=CC(O)(CCCCOc2ccccc2)/C(=C/C=C/C(O)CCCO)C1=O` (stereo not shown) [drawing 1109, 2-methylsulfinyl-5-[( -- Z)-4,7-dihydroxy-2-heptenylidene]-4-(4-phenoxybutylidene)-4-hydroxy-2-cyclopentenone] had an ALP of 0.92 ± 0.9 OD 415 nm/dish, a P of 61 ± 4 μg/dish and a Ca of 109 μg/dish. Also, in assay [1] (10^-7 M), the ALP is listed as 0.81 ± 0.11 OD 415 nm/dish, the P came out at 52 ± 1 μg/dish and the Ca came to 89 ± 1 μg/dish.
In the assay with L1210 cancer cells, `CS(=O)(=O)C1=CC(O)(CCCCOc2ccccc2)/C(=C\C=C\C(O)CCCO)C1=O` (stereo not shown) [2-methylsulfonyl-5-[( -- E)-4,7-dihydroxy-2-heptenylidene]-4-(4-phenoxybutyl)-4-hydroxy-2-cyclopentenone] yielded an IC50 of 2 µg/mL (≈ 4.44 µM).
For the compound `CCCCC1=C(Sc2nccn2C)C(=O)C(=CC=CC(O)CCCO)C1(O)CCCCOc1ccccc1` (stereo not shown) [drawing 1063], the midpoint of inhibition with L1210 tumor cells, the IC50, lay at 2.3 µg/mL (≈ 4.25 µM).
The compound `CCCCCC(O)C=CC1C=C([S+](C)[O-])C(=O)C1=CCCCCCC(=O)OC` (stereo not shown) [2-methylsulfinyl-5-(6-methoxycarbonyl-hexylidene)-4-(3-hydroxy-1-octenyl)-2-cyclopentenone] yielded an IC50 in the assay with L1210 cancer cells of 4 µg/mL (≈ 9.74 µM).
For the compound `CSC1=CC(CCCCOc2ccccc2)C(=CC=CC(O)CCCO)C1=O` (stereo not shown), the IC50 in the assay on L1210 tumor cells turned out to be 1.9 µg/mL (≈ 4.72 µM).
In assay [2] (10^-6 M), `CSC1=CC(O)(CCCCOc2ccccc2)/C(=C\C=C\C(O)CCCO)C1=O` (stereo not shown) [2-methylthio-5-[( -- E)-4,7-dihydroxy-2-heptenylidene]-4-(4-phenoxybutyl)-4-hydroxy-2-cyclopentenone] showed an ALP of 0.97 OD 415 nm/dish and a Ca of 168 μg/dish. In assay [2] (10^-7 M), this compound came in with an ALP of 0.56 ± 0.08 OD 415 nm/dish, a P of 64 ± 3 μg/dish and a Ca of 114 ± 4 μg/dish. In assay [2] (10^-8 M), the ALP worked out at 0.24 ± 0.02 OD 415 nm/dish, the P is given as 47 ± 2 μg/dish and the Ca amounted to 87 ± 6 μg/dish.
In turn, `CSC1=CC(O)C(=CC=CC(O)CCCO)C1=O` (stereo not shown) [drawing 1064] showed an IC50 in the assay on L1210 tumor cells of 0.1 µg/mL (≈ 0.37 µM).
Still for that read-out and setting: with `COC(=O)COc1cccc(C=C2C(=O)C(SC)=CC2(O)CCCCOc2ccccc2)c1` (stereo not shown) [drawing 1060] the figure was 0.83 µg/mL (≈ 1.77 µM).
In assay [1] (10^-6 M), `CCCCCC(O)C=CC1C=C(SC)C(=O)C1=CCCCCCC(=O)OC` (stereo not shown) [drawing 1111, 2-methylthio-5-(6-methoxy-carbonylhexylidene)-4-(3-hydroxy-1-octenyl)-2-cyclo-pentenone] yielded an ALP of 0.68 ± 0.10 OD 415 nm/dish, a P of 43 ± 4 μg/dish and a Ca of 79 μg/dish. In assay [1] (10^-7 M), this compound gave an ALP of 0.73 ± 0.02 OD 415 nm/dish, a P of 46 ± 2 μg/dish and a Ca of 78 ± 4 μg/dish.
In the assay with L1210 tumor cells, `Cn1ccnc1SC1=CC(O)(CCCCOc2ccccc2)C(=CC=CC(O)CCCO)C1=O` (stereo not shown) [drawing 1062] showed an IC50 of 0.15 µg/mL (≈ 0.31 µM).
For `Cn1ccnc1SC1=CC(O)(CCCCOc2ccccc2)C(C(O)C=CC(O)CCCO)C1=O` (stereo not shown) [drawing 1066], half-maximal inhibition in the assay with L1210 tumor cells (IC50) was put at 0.32 µg/mL (≈ 0.637 µM).
The compound `O=C1C(SC2CCCCC2)=CC(O)(CCCCOc2ccccc2)C1=CC=CC(O)CCCO` (stereo not shown) [drawing 1059] had an IC50 in the assay with L1210 tumor cells of 0.78 µg/mL (≈ 1.6 µM).
The compound `C[S+]([O-])C1=CC(O)(CCCCOc2ccccc2)/C(=C/C=C/C(O)CCCO)C1=O` (stereo not shown) [drawing 1102, 2-methylsulfinyl-5-[( -- Z)-4,7-dihydroxy-2-heptenylidene]-4-(4-phenoxybutyl)-4-hydroxy-2-cyclopentenone] gave an IC50 in the assay with L1210 cancer cells of 1 µg/mL (≈ 2.3 µM).
Same read-out and setting: the value for `C[S+]([O-])C1=CC(=CCCCOc2ccccc2)/C(=C/C=C/C(O)CCCO)C1=O` (stereo not shown) [2-methylsulfinyl-5-[( -- Z)-4,7-dihydroxy-2-heptenylidene]-4-(4-phenoxybutylidene)-2-cyclopentenone] was 0.1 µg/mL (≈ 0.24 µM).
Consider `CSC1=CC(O)(CCCCOc2ccccc2)/C(=C/C=C/C(O)CCCO)C1=O` (stereo not shown) [drawing 1106, 2-methylthio-5-[( -- Z)-4,7-dihydroxy-2-heptenylidene]-4-(4-phenoxybutyl)-4-hydroxy-2-cyclopentenone], for which the ALP in assay [2] (10^-6 M) worked out at 1.12 OD 415 nm/dish; in assay [2] (10^-7 M) it was 0.48 ± 0.08 OD 415 nm/dish; in assay [2] (10^-8 M) it was 0.28 ± 0.06 OD 415 nm/dish. The Ca in assay [2] (10^-6 M) was determined as 168 μg/dish; in assay [2] (10^-7 M), 111 ± 9 μg/dish; in assay [2] (10^-8 M) it was 84 ± 10 μg/dish. The P in assay [2] (10^-7 M) is 63 ± 6 μg/dish; in assay [2] (10^-8 M), 47 ± 6 μg/dish.
In assay [1] (10^-6 M), `CSC1=CC(=CCCCOc2ccccc2)C(=C/C=C\C(O)CCCO)C1=O` (stereo not shown) [2-methylthio-5-[( -- Z)-4,7-dihydroxy-2-heptenylidene]-4-(4-phenoxybutylidene)-2-cyclopentenone] returned an ALP of 0.94 ± 0.11 OD 415 nm/dish, a P of 60 ± 0.5 μg/dish and a Ca of 109 μg/dish. In assay [1] (10^-7 M), this compound displayed an ALP of 0.94 ± 0.07 OD 415 nm/dish, a P of 48 ± 4 μg/dish and a Ca of 85 ± 10 μg/dish.
Take `O=C1C(=CCCC2CCCCC2)CC=C1Sc1ccccc1`: the ALP in assay [3] (Table 34, 10^-7 M, control 0.35 ± 0.02) amounted to 0.36 ± 0.04 OD415 /dish; in assay [3] (Table 34, 10^-8 M, control 0.35 ± 0.02), 0.30 OD415 /dish. Moreover, the P in assay [3] (Table 34, 10^-7 M, control 12.41 ± 1.50) was determined as 12.33 ± 2.80 μg/dish; in assay [3] (Table 34, 10^-8 M, control 12.41 ± 1.50), 8.98 ± 1.89 μg/dish. Further, the Ca in assay [3] (Table 34, 10^-7 M, control 17.81 ± 0.50) was 23.94 ± 5.80 μg/dish; in assay [3] (Table 34, 10^-8 M, control 17.81 ± 0.50) it was 18.13 ± 2.6 μg/dish.
In assay [1] (10^-6 M), `CSC1=CC(=CCCCOc2ccccc2)/C(=C/C=C/C(O)CCCO)C1=O` (stereo not shown) [drawing 1108, 2-methylthio-5-[( -- Z)-4,7-dihydroxy-2-heptenylidene]-4-(4-phenoxybutylidene)-2-cyclopentenone] showed an ALP of 0.75 ± 0.17 OD 415 nm/dish, a P of 57 ± 1 μg/dish and a Ca of 105 μg/dish. In assay [1] (10^-7 M), this compound came in with an ALP of 0.69 ± 0.02 OD 415 nm/dish, a P of 60 ± 14 μg/dish and a Ca of 110 ± 30 μg/dish.
`Cn1ccnc1SC1=CC(O)(CCCCOc2ccccc2)C(C(O)C=CC(O)CCCO)C1=O` (stereo not shown) [drawing 1072]: the ALP in assay [3] (Table 28, 10^-6 M, control 0.72 ± 0.01) was 0.76 ± 0.08 OD413 /dish; in assay [3] (Table 28, 10^-7 M, control 0.72 ± 0.01), 0.81 OD413 /dish. In addition, the Ca in assay [3] (setting [4]) is given as 26.17 ± 3.25 μg/dish; in assay [3] (Table 28, 10^-7 M, control 4.33 ± 0.58), 1.17 μg/dish. The P in assay [3] (setting [4]) turned out to be 19.33 ± 2.02 μg/dish.
As to `CCOc1ccc2nc(SC3=CC(O)(CCCCOc4ccccc4)C(=CC=CC(O)CCCO)C3=O)sc2c1` (stereo not shown) [drawing 1061], half-maximal inhibition in the assay on L1210 tumor cells (IC50) required 0.02 µg/mL (≈ 0.0344 µM).
Turning to `COC(=O)CCCC#CCC1C(=O)C(SC)=CC1(O)CCCCOc1ccccc1` (stereo not shown), the ALP in assay [3] (Table 33, 10^-5 M, control 0.80 ± 0.02) is recorded as 0.98 ± 0.08 OD415 /dish; in assay [3] (Table 33, 10^-6 M, control 0.80 ± 0.02), 0.90 OD415 /dish. Further, in assay [3] (Table 33, 10^-5 M, control 15.67 ± 1.53), the P was determined as 35.33 ± 0.58 μg/dish. In addition, the Ca in assay [3] (Table 33, 10^-5 M, control 22.67 ± 3.06) is listed as 58.67 ± 1.53 μg/dish; in assay [3] (Table 33, 10^-6 M, control 22.67 ± 3.06), 24.33 ± 1.53 μg/dish.
